Measurements published in ChEMBL document CHEMBL5131389, “PSMA-targeted small-molecule docetaxel conjugate: Synthesis and preclinical evaluation” (Eur J Med Chem, 2022).
Several values for one entry are separate records, joined by “and”; a condition that tells them apart may be missing. Equal values may be shown once. Activity calls are given as the source filed them. The rule behind the calls is not given here.

Legend:
[1] = Chronic toxicity in Soviet Chinchilla rabbit assessed as decrease in body weight at 8.14 mg/kg, iv administered as pluronic F127 formulation at 4 intervals for 21 days and observed 3 weeks post last injection; assay type: organism-based, Oryctolagus cuniculus; details: in vivo, 2544 h, time 106 day
DU-145 [2] = assay: Antitumor activity against human DU-145 cells xenografted in BALB/c nude mouse assessed as tumor growth inhibition at 60 mg/kg, ip measured upto 30 days; assay type: functional; details: DU-145, 720 h, time <= 30 day, read-out: TGI
CWR22R [3] = assay: Antitumor activity against human 22Rv1 cells xenografted in Balb/c nude mouse assessed as tumor growth inhibition at 20 mg/kg, ip administered once in two days for three times and measured 7 days after the end of treatment relative to control; assay type: functional; details: 22Rv1, 312 h, time 13 day, read-out: TGI
[4] = Acute toxicity in Wistar rat assessed as liver damage at 15 to 279 mg/kg, iv administered as pluronic F127 formulation and measured for 14 days; assay type: organism-based; details: in vivo, 336 h, dose 15-279 mg/kg, time 14 day
[5] = Acute toxicity in Wistar rat assessed as coprostasis at 15 to 279 mg/kg, iv administered as pluronic F127 formulation and measured for 14 days; assay type: organism-based; details: in vivo, 336 h, dose 15-279 mg/kg, time 14 day
[6] = Chronic toxicity in Soviet Chinchilla rabbit assessed as increase in relative liver mass administered intravenously as pluronic F127 formulation at 4 intervals for 21 days and observed 3 weeks post last injection relative to control; assay type: tissue-based, Oryctolagus cuniculus; details: in vivo, iv, 2544 h, time 106 day
[7] = MRT (0 to t) in Soviet Chinchilla rabbit at 8.1 mg/kg, iv administered as pluronic F127 formulation measured upto 72 hrs by high-performance liquid chromatography tandem mass spectrometric analysis; assay type: ADME, organism-based, Oryctolagus cuniculus; details: in vivo
[8] = Chronic toxicity in rat assessed as reduction in standing up at 22.5 mg/kg, iv administered as pluronic F127 formulation at 4 intervals for 21 days and observed 3 weeks post last injection; assay type: organism-based; details: in vivo, 2544 h, time 106 day
[9] = Volume of distribution in Albino Wistar rat at 15 mg/kg, iv administered as pluronic F127 formulation measured upto 72 hrs by high-performance liquid chromatography tandem mass spectrometric analysis; assay type: ADME, organism-based; details: in vivo
[10] = Chronic toxicity in rat assessed as hair loss at 15 to 18.45 mg/kg, iv administered as pluronic F127 formulation at 4 intervals for 21 days and observed 3 weeks post last injection; assay type: organism-based; details: in vivo, 2544 h, dose 15-18.45 mg/kg, time 106 day
CWR22R [11] = assay: Cytotoxicity against human 22Rv1 cells assessed as reduction in cell viability measured after 72 hrs by MTT assay; assay type: functional
DU-145 [12] = assay: Antitumor activity against human DU-145 cells xenografted in BALB/c nude mouse assessed as reduction in tumor growth index at 30 mg/kg, ip measured upto 30 days; assay type: functional; parameters: scale not given: the % may be the effect or the level left; details: time <= 30 day
[13] = Ratio of AUC (t to infinity) to AUC (0 to infinity) in Soviet Chinchilla rabbit at 8.1 mg/kg, iv administered as pluronic F127 formulation measured upto 72 hrs by high-performance liquid chromatography tandem mass spectrometric analysis; assay type: ADME, organism-based, Oryctolagus cuniculus; details: in vivo
[14] = Chronic toxicity in rat assessed as neurological disorder at 15 to […] mg/kg, iv administered as pluronic F127 formulation at 4 intervals for 21 days and observed 3 weeks post last injection; assay type: organism-based; details: in vivo, 2544 h, dose lower 15 mg/kg, time 106 day
[15] = Acute toxicity in Wistar rat assessed as kidney lesion at 15 to 279 mg/kg, iv administered as pluronic F127 formulation and measured for 14 days; assay type: organism-based; details: in vivo, 336 h, dose 15-279 mg/kg, time 14 day
[16] = Acute toxicity in ICR mouse assessed as lethal dose administered intravenously as pluronic F127 formulation and measured for 14 days; details: in vivo, route iv, time 14 day
[17] = Chronic toxicity in rat assessed as change in volume of excreted urine at 18.75 to 22.5 mg/kg, iv administered as pluronic F127 formulation at 4 intervals for 21 days and observed 3 weeks post last injection; assay type: organism-based; details: in vivo, 2544 h, dose 18.75-22.5 mg/kg, time 106 day
[18] = Chronic toxicity in rat assessed as increase in relative kidney weight at 18.75 mg/kg, iv administered as pluronic F127 formulation at 4 intervals for 21 days and observed 3 weeks post last injection; assay type: organism-based; details: in vivo, 2544 h, time 106 day
[19] = Acute toxicity in Wistar rat assessed as decrease in body weight administered intravenously as pluronic F127 formulation and measured for 14 days; details: in vivo, iv, 336 h, dose 15-279 mg/kg, time 14 day
[20] = Acute toxicity in ICR mouse assessed as kidney lesion at 183 to 960 mg/kg, iv administered as pluronic F127 formulation and measured for 14 days; assay type: organism-based; details: in vivo, 336 h, dose 183-960 mg/kg, time 14 day
[21] = Chronic toxicity in Soviet Chinchilla rabbit assessed as animal death administered intravenously as pluronic F127 formulation at 4 intervals for 21 days and observed 3 weeks post last injection; parameters: species or system Oryctolagus cuniculus; details: in vivo, iv, 2544 h, time 106 day
[22] = Stability of the compound in pH 7.4 buffer measured upto 96 hrs by LC-MS based mass spectrometric analysis; assay type: physicochemical; details: pH 7.4, 96 h
[23] = Chronic toxicity in rat assessed as increase in relative mass of liver at 15 to 22.5 mg/kg, iv administered as pluronic F127 formulation at 4 intervals for 21 days and observed 3 weeks post last injection relative to control; assay type: organism-based; details: in vivo, 2544 h, dose 15-22.5 mg/kg, time 106 day
[24] = Chronic toxicity in rat assessed as reduction in number of peeping into holes at 22.5 mg/kg, iv administered as pluronic F127 formulation at 4 intervals for 21 days and observed 3 weeks post last injection; assay type: organism-based; details: in vivo, 2544 h, time 106 day
PC-3 = assay: Induction of ROS generation in human PC-3 cells at 800 mV holding potential measured after 1 hr by patch clamp amplifier based optical inverted microscopic analysis; assay type: functional, cell-based
[25] = Half-life in Soviet Chinchilla rabbit at 8.1 mg/kg, iv administered as pluronic F127 formulation measured upto 72 hrs by high-performance liquid chromatography tandem mass spectrometric analysis; assay type: ADME, organism-based, Oryctolagus cuniculus; details: in vivo
CWR22R [26] = assay: Antitumor activity against human 22Rv1 cells xenografted in Balb/c nude mouse assessed as tumor growth inhibition at 10 mg/kg, ip administered once in two days for three times and measured 7 days after the end of treatment relative to control; assay type: functional; details: 22Rv1, 312 h, time 13 day, read-out: TGI
[27] = Selectivity ratio of CC50 for cytotoxicity against human PC-3 cells to CC50 for cytotoxicity against human 22Rv1 cells
[28] = MRT (0 to t) in Albino Wistar rat at 15 mg/kg, iv administered as pluronic F127 formulation measured upto 72 hrs by high-performance liquid chromatography tandem mass spectrometric analysis; assay type: ADME, organism-based; details: in vivo
[29] = Chronic toxicity in rat assessed as reduction in grooming frequency at 22.5 mg/kg, iv administered as pluronic F127 formulation at 4 intervals for 21 days and observed 3 weeks post last injection; assay type: organism-based; details: in vivo, 2544 h, time 106 day
DU-145 [30] = assay: Antitumor activity against human DU-145 cells xenografted in BALB/c nude mouse assessed as reduction in tumor growth index at 60 mg/kg, ip measured upto 30 days (reference value: 1110.1 +/- 136.7 %); assay type: functional; parameters: scale not given: the % may be the effect or the level left; details: time <= 30 day

In the case of `CC(=O)O[C@@]12CO[C@@H]1C[C@H](O)[C@@]1(C)C(=O)[C@H](O)C3=C(C)[C@@H](OC(=O)[C@H](OC(=O)CCCc4cn(CCCNC(=O)[C@H](Cc5ccc(O)cc5)NC(=O)[C@H](Cc5ccccc5)NC(=O)CCC(=O)NCCCCCC(=O)N(CCCC[C@H](NC(=O)N[C@@H](CCC(=O)O)C(=O)O)C(=O)O)Cc5cccc(Cl)c5)nn4)[C@@H](NC(=O)OC(C)(C)C)c4ccccc4)C[C@@](O)([C@@H](OC(=O)c4ccccc4)[C@H]21)C3(C)C`, the Activity [1] is reported as “Toxic”, the inhibition in vivo at 60 mg/kg (DU-145 [2]) is reported as 83.7% and the inhibition in vivo at 20 mg/kg (CWR22R [3]) is reported as 85%. The Activity [4] was “Toxic”, the Activity [5] was “Toxic” and the Activity [6] was “Toxic”. The MRT last at 72 h [7] was 7.4 h, the Activity [8] was “Toxic” and the Vd [9] was 0.631 L/kg. For the same compound, the Activity [10] was “Non-Toxic”, the CC50 (CWR22R [11]) was 2.7 nM and the Activity (DU-145 [12]) was 190.1%. The “Ratio AUC” value [13] was 12%, the Activity [14] was “Non-Toxic” and the Activity [15] was “Toxic”. The LD50 at 336 h [16] was 409 mg/kg and 210 µmol/kg, the Activity [17] was “Toxic” and the Activity [18] was “Toxic”. For the same compound, the Activity [19] was “Toxic”, the Activity [20] was “Toxic” and the Activity [21] was “Non-Toxic”. The Stability [22] was “Unstable”, the Activity [23] was “Toxic” and the Activity [24] was “Toxic”. For the same compound, the Activity (PC-3) was “Active”, the half-life [25] was 8.1 h and the inhibition in vivo at 10 mg/kg (CWR22R [26]) was 87%. For the same compound, the Selectivity ratio [27] was 1, the MRT last at 72 h [28] was 0.4 h and the Activity [29] was “Toxic”. It also gave an Activity (DU-145 [30]) of 150.9%.
